Assay results taken from patent US9890142B2, “PDE4 inhibitor” (Meiji Seika Pharma Co., Ltd., priority 2013, dated 2018).

Tested on: PDE4
Assay: Evaluation of PDE4 inhibition (scintillation proximity assay)
Assay type: biochemical
Details: inhibition rate relative to control, test compound at 1 μM
Procedure, shortened: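 PDE4 was incubated 120 min at room temperature with [3H]-cAMP and compound in 50 mM Tris-HCl pH 7.5, 8.3 mM MgCl2, 1.7 mM EDTA, 0.3 mg/mL BSA. Product captured on ZnSO4-containing YSi-SPA beads and counted; inhibition calculated against DMSO control after no-enzyme blank subtraction.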

Compound | PDE4 inhibitory activity (1 μM (%))
Cc1c(Cl)cc2nc(N3CCNC[C@@H]3C)oc2c1-c1ccccn1 [Example 137, (S)-5-Chloro-6-methyl-2-(2-methylpiperazin-1-yl)-7-(pyridin-2-yl)benzoxazole] | 33%
Cc1c(Cl)cc2nc(N3CCNC[C@@H]3C)oc2c1-c1nccs1 [Example 138, (S)-5-Chloro-6-methyl-2-(2-methylpiperazin-1-yl)-7-(thiazol-2-yl)benzoxazole] | 86%
Cc1c(Cl)cc2nc(N3CCNC[C@@H]3C)oc2c1-n1cccn1 [Example 139, (S)-5-Chloro-6-methyl-2-(2-methylpiperazin-1-yl)-7-(1H-pyrazol-1-yl)benzoxazole] | 39%
COc1c(Cl)cc2nc(N3CCNC[C@@H]3C)oc2c1-c1ccccn1 [Example 140, (S)-5-Chloro-6-methoxy-2-(2-methylpiperazin-1-yl)-7-(pyridin-2-yl)benzoxazole] | 35%
COc1c(Cl)cc2nc(N3CCNC[C@@H]3C)oc2c1-c1nccs1 [Example 141, (S)-5-Chloro-6-methoxy-2-(2-methylpiperazin-1-yl)-7-(thiazol-2-yl)benzoxazole] | 77%
C[C@H]1CNCCN1c1nc2cc(Cl)c(C#N)c(-c3nccs3)c2o1 [Example 142, (S)-5-Chloro-6-cyano-2-(2-methylpiperazin-1-yl)-7-(thiazol-2-yl)benzoxazole] | 86%
C[C@H]1CNCCN1c1nc2c(C#N)c(Cl)cc(-c3nccs3)c2o1 [Example 143, (S)-5-Chloro-4-cyano-2-(2-methylpiperazin-1-yl)-7-(thiazol-2-yl)benzoxazole] | 94%
C[C@H]1CNCCN1c1nc2cc(F)c(C(F)(F)F)c(-c3nccs3)c2o1 [Example 144, (S)-5-Fluoro-2-(2-methylpiperazin-1-yl)-7-(thiazol-2-yl)-6-(trifluoromethyl)benzoxazole] | 41%
C[C@H]1CNCCN1c1nc2cc(Cl)cc(S(C)(=O)=O)c2o1 [Example 145, (S)-5-Chloro-2-(2-methylpiperazin-1-yl)-7-(methylsulfonyl)benzoxazole] | 80%
C[C@H]1CNCCN1c1nc2c(I)c(Cl)cc(-c3ccccn3)c2o1 [Example 146, (S)-5-Chloro-4-iodo-2-(2-methylpiperazin-1-yl)-7-(pyridin-2-yl)benzoxazole] | 95%
C[C@H]1CNCCN1c1nc2cc(Cl)c(I)c(-c3ccccn3)c2o1 [Example 147, (S)-5-Chloro-6-iodo-2-(2-methylpiperazin-1-yl)-7-(pyridin-2-yl)benz oxazole] | 53%
C[C@H]1CNCCN1c1nc2c(-c3ccccc3)c(Cl)cc(-c3ccccn3)c2o1 [Example 148, (S)-5-Chloro-2-(2-methylpiperazin-1-yl)-4-phenyl-7-(pyridin-2-yl)benzoxazole] | 94%
C[C@H]1CNCCN1c1nc2c(C3CC3)c(Cl)cc(-c3ccccn3)c2o1 [Example 149, (S)-5-Chloro-4-cyclopropyl-2-(2-methylpiperazin-1-yl)-7-(pyridin-2-yl)benzoxazole] | 91%
CSc1c(Cl)cc(-c2ccccn2)c2oc(N3CCNC[C@@H]3C)nc12 [Example 150, (S)-5-Chloro-2-(2-methylpiperazin-1-yl)-4-(methylthio)-7-(pyridin-2-yl)benzoxazole] | 91%
C[C@H]1CNCCN1c1nc2c(S(C)(=O)=O)c(Cl)cc(-c3ccccn3)c2o1 [Example 151, (S)-5-Chloro-2-(2-methylpiperazin-1-yl)-4-(methylsulfonyl)-7-(pyridin-2-yl)benzoxazole] | 76%
C[C@H]1CNCCN1c1nc2cc(Cl)c(Br)c(-c3ccccn3)c2o1 [Example 152, (S)-6-Bromo-5-chloro-2-(2-methylpiperazin-1-yl)-7-(pyridin-2-yl)benzoxazole] | 68%
COc1c(Cl)cc(-c2ccccn2)c2oc(N3CCNC[C@@H]3C)nc12 [Example 153, (S)-5-Chloro-4-methoxy-2-(2-methylpiperazin-1-yl)-7-(pyridin-2-yl)benzoxazole] | 93%
Cc1cc(Cl)cc2nc(N3CCNC[C@@H]3C)oc12 [Example 154, (S)-5-Chloro-7-methyl-2-(2-methylpiperazin-1-yl)benzoxazole] | 39%
COc1c(Cl)cc(-c2nccs2)c2oc(N3CCNC[C@@H]3C)nc12 [Example 155, (S)-5-Chloro-4-methoxy-2-(2-methylpiperazin-1-yl)-7-(thiazol-2-yl)benzoxazole] | 96%
COc1c(Cl)cc(-n2cccn2)c2oc(N3CCNC[C@@H]3C)nc12 [Example 156, (S)-5-Chloro-4-methoxy-2-(2-methylpiperazin-1-yl)-7-(1H-pyrazol-1-yl)benzoxazole] | 91%
C[C@@H]1CNCCN1c1nc2c(OC(F)(F)F)c(Cl)cc(-c3ccccn3)c2o1 [Example 157, (R)-5-Chloro-2-(2-methylpiperazin-1-yl)-7-(pyridin-2-yl)-4-(trifluoromethoxy)benzoxazole] | 41%
C[C@@H]1CNCCN1c1nc2c(OC(F)(F)F)c(Cl)cc(-c3nccs3)c2o1 [Example 158, (R)-5-Chloro-2-(2-methylpiperazin-1-yl)-7-(thiazol-2-yl)-4-(trifluoromethoxy)benzoxazole] | 88%
C[C@@H]1CNCCN1c1nc2c(OC(F)(F)F)c(Cl)cc(-n3cccn3)c2o1 [Example 159, (R)-5-Chloro-2-(2-methylpiperazin-1-yl)-7-(1H-pyrazol-1-yl)-4-(trifluoromethoxy)benzoxazole] | 57%
C[C@H]1CNCCN1c1nc2cc(Cl)c(OC(F)(F)F)c(-c3nccs3)c2o1 [Example 160, (S)-5-Chloro-2-(2-methylpiperazin-1-yl)-7-(thiazol-2-yl)-6-(trifluoromethoxy)benzoxazole] | 86%
COc1c(Cl)cc2nc(N3CCNC[C@@H]3C)oc2c1C [Example 161, (S)-5-Chloro-6-methoxy-7-methyl-2-(2-methylpiperazin-1-yl)benzoxazole] | 19%
Cc1c(O)c(Cl)cc2nc(N3CCNC[C@@H]3C)oc12 [Example 162, (S)-5-Chloro-6-hydroxy-7-methyl-2-(2-methylpiperazin-1-yl)benzoxazole] | 35%
C[C@H]1CNCCN1c1nc2c(Br)cc(Cl)cc2o1 [Example 163, (S)-4-Bromo-6-chloro-2-(2-methylpiperazin-1-yl)benzoxazole] | 52%
C[C@H]1CNCCN1c1nc2c(-c3ccco3)cc(Cl)cc2o1 [Example 164, (S)-6-Chloro-4-(furan-2-yl)-2-(2-methylpiperazin-1-yl)benzoxazole] | 75%
C[C@@H]1CNCCN1c1nc2c(-c3ccco3)cc(Cl)cc2o1 [Example 165, (R)-6-Chloro-4-(furan-2-yl)-2-(2-methylpiperazin-1-yl)benzoxazole] | 31%
C[C@H]1CNCCN1c1nc2c(-n3cccn3)cc(Cl)cc2o1 [Example 166, (S)-6-Chloro-2-(2-methylpiperazin-1-yl)-4-(1H-pyrazol-1-yl)benzoxazole] | 71%
